Assay [1] deals with T1, Retinoic acid receptor beta (Homo sapiens, UniProt P10826).
T1 sequence (P10826 whole entry): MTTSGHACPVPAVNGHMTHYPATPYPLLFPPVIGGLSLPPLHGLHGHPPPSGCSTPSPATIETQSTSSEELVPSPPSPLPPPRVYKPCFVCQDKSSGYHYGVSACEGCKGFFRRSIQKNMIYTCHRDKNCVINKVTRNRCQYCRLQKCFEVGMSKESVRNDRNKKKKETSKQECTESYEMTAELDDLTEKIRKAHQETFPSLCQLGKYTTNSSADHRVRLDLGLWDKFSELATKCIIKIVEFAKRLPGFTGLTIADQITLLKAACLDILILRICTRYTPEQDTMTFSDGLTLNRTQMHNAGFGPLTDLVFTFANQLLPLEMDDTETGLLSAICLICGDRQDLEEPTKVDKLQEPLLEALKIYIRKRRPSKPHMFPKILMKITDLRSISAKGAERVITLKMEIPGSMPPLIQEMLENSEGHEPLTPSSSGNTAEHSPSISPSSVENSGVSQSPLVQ
Kind of assay: Apparent binding constant for Retinoic acid receptor beta in HeLa cellGAL-4 transactivation assay. It counts as cell-based.

In assay [2] the target is T2, Retinoic acid receptor alpha (Homo sapiens, UniProt P10276).
T2 sequence (P10276 whole entry): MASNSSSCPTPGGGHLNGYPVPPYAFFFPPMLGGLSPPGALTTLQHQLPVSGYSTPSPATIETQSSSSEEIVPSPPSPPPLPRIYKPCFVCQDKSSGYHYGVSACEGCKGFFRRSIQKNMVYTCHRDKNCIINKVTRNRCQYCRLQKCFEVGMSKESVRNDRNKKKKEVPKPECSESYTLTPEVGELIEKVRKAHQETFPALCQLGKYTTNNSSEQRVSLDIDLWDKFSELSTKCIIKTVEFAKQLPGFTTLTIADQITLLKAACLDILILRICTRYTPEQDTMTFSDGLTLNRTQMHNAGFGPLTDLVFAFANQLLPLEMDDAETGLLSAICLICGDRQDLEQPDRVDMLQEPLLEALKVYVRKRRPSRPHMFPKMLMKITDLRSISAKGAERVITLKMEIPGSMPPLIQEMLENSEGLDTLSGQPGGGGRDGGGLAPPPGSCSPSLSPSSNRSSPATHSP
Kind of assay: Apparent binding constant against Retinoic acid receptor alpha in HeLa cell GAl-4 transactivation assay. It counts as cell-based.

For `CC1(C)CCC(C)(C)c2cc(/C(=N/NS(C)(=O)=O)c3ccc4cc(C(=O)O)ccc4c3)ccc21`, the Kd in assay [1] stood at 1.27 µM; in assay [2], 11 µM.

The values above are taken from ChEMBL document CHEMBL1129343, “Retinoic acid receptor beta,gamma-selective ligands: synthesis and biological activity of 6-substituted 2-naphthoic acid retinoids” (J Med Chem, 1996).
